Among the data in patent EP1674470A1, “Sulfonamido-macrocycles as Tie2 inhibitors” (Schering Aktiengesellschaft, priority 2004, dated 2006) are IC50 values, retold here.

This experiment has as its system DU 145. In words: Proliferation test (cytotoxicity assay, crystal violet staining). As to conditions: Homo sapiens; cytotoxicity assay using the cell line DU 145. It counts as cell-based. The protocol:
Biological experiment 3: Proliferation test
To examine cell toxicity a cell proliferation test were established.
With the cell proliferation test different tumour cell lines (e.g. Du 145) can be examined. The cells were dispensed in RPMI 1640 culture medium, supplied with 10 % (v/v) fetal calf serum plus 1 % (v/v) Penicillin/Streptomycin solution at a cell density of 2.000 cell/100µL medium/per well (96well plate). After three hours the cells were washed with PBS (containing calcium and magnesium). 100 µl of culture medium above with 0.1 % (v/v) fetal calf serum was added and cultured at 37°C and 5% CO2-atmosphere. Next day compounds of the present invention diluted in DMSO for appropriate concentrations were added and further 100 µL culture medium 0.5 % (v/v) fetal calf serum. After 5 days cell culturing at 37°C and 5% CO2-atmosphere cells were washed with PBS. 20 µL of glutaraldehyde solution (11 % (v/v)) is added and the cells were slightly shaken at room temperature for 15 min. After that the cell were washed 3 times and dried in the air. 100 µL of crystal violet solution (0.1 % at pH 3.5) were added and the cells were shaken for 30 min. The cells were washed with tap water and air-dried. The colour is dissolved with 100 µL of acetic acid (10 % (v/v)) under strong shaking for 5 min. The absorption was measured at 595 nm wavelength.
As usually defined, the IC50 is the point on the concentration scale where inhibition reaches its midpoint. A low value points to higher potency. As to `COC(=O)c1ccc(-c2cnc3nc2NCCCNS(=O)(=O)c2cccc(c2)N3)cc1` [Example Compound 1.1, methyl 4-[4,4-dioxo-4λ^6-thia-2,5,9-triaza-1(2,4)-pyrimidina-3(1,3)-benzenacyclononaphan-1^5-yl]benzoate], the IC50 was > 1000 nM. `CC(=O)c1ccc(-c2cnc3nc2NCCCNS(=O)(=O)c2cccc(c2)N3)cc1` [Example Compound 1.2, 1-[4-[4,4-dioxo-4λ^6-thia-2,5,9-triaza-1(2,4)-pyrimidina-3(1,3)-benzenacyclononaphan-1^5-yl]phenyl]ethanone]: the IC50 was > 1000 nM.

On to `O=S1(=O)NCCCNc2nc(ncc2-c2ccccc2)Nc2cccc1c2` [Example Compound 1.3, 1^5-phenyl-4-thia-2,5,9-triaza-1(2,4)-pyrimidina-3(1,3)-benzenacyclononaphane 4,4-dioxide], for which the IC50 is > 1000 nM. The figure for `COc1ccc(-c2cnc3nc2NCCCNS(=O)(=O)c2cccc(c2)N3)cc1` [Example Compound 1.5, 1^5-(4-methoxyphenyl)-4-thia-2,5,9-triaza-1(2,4)-pyrimidina-3(1,3)-benzenacyclononaphane 4,4-dioxide] is > 1000 nM.
